Data set [1] can be described thus: Solubility of compound. In kind it is physicochemical.
A short description of data set [2]: Inhibition of Thermoplasma acidophilum ATCC25905 recombinant Tricorn protease-interacting factor F3 E101Q, N261T mutant using Leu-p-nitroanilide as a substrate after 30 mins.

Consider `NC(Cc1ccccc1)C(=O)NC(CCCCNC(=O)OCc1ccccc1)C(=O)NO` (configuration not stated), for which, in data set [1], the solubility result is listed as “soluble”. The IC50 in data set [2] stood at 30 µM.

The record behind these values is ChEMBL document CHEMBL1773064, “Engineered Thermoplasma acidophilum factor F3 mimics human aminopeptidase N (APN) as a target for anticancer drug development” (Bioorg Med Chem, 2011).
